Assay results as given in patent US8334299B2, “β-carboline for the treatment of neurodegenerative diseases” (Ellneuroxx, Ltd., priority 2007, dated 2012).

Key:
[1] = tested on: genes involved in neuronal differentiation, inflammation, apoptosis; assay: Microarray analysis of gene transcription in midbrain cultures; assay type: cell-based, mice; details: vs control cultures
From the text: These findings were further sustained by so-called microarray methods. The analyses confirm that the transcription of genes involved in neuronal differentiation is increased.

[2] = tested on: midbrain cells in culture; assay: Dead (necrotic) cells by propidium iodide staining of cell nuclei; assay type: cell-based, mice; details: 48 hours, 50 μM; control about 20%
Experimental: FIG. 4b Percentage of dead (necrotic) cells after incubation with 50 μM 9-methyl-β-carboline for 48 hours 10 DIV-12 DIV.
(§1) Dying cells release the enzyme lactate dehydrogenase (LDH) into the medium. Since cells always die in culture always a small LDH concentration can be detected in the medium as an indirect measure for the vitality of the culture. Compared to control conditions the LDH concentration decreased after incubation with 9-methyl-β-carboline in a dose-dependent manner with a concentration up to 50 μM (FIG. 4a). The number of dead cells can be quantified by staining the cell nuclei with propidium iodide.

[3] = tested on: midbrain cells in culture; assay: LDH release of midbrain cells in culture; assay type: cell-based, mice; details: 48 hours; dose-dependent up to 50 μM
Experimental: FIG. 4a LDH release after 48 hours of incubation with 50 μM 9-methyl-β-carboline for 48 hours 10 DIV-12 DIV.
as §1

[4] = tested on: Sonic Hedgehog, Wnt 1, Wnt 5a, engrailed 1, Nurr 1, Pitx 3, Aldh1a1, DAT, tyrosin hydroxylase; assay: Real-time-RT-PCR of neurotrophic transcription factors and dopamine markers in midbrain cultures; assay type: cell-based, mice; details: 50 μM, 48 hours and 48 hours after removal
Experimental: FIG. 7 Evidence of gene expression of neurotrophic transcription factors and dopamine markers with real-time-RT-PCR after incubation with 50 μM 9-methyl-β-carboline for 48 hours 10 DIV-12 DIV.
For this purpose, real-time-RT-PCR experiments were carried out. In this quantitative method the transcription of selected genes is measured. We selected genes which are enhanced under proliferation and differentiation conditions and such that are of importance for the formation, stability and degradation of dopaminergic neurons. The analyses were conducted in midbrain cultures after exposition to 50 μM 9-methyl-β-carboline for 48 hours and 48 hours after removal of 9-methyl-β-carboline. Control cultures were kept simultaneously under the same conditions. […] Moreover, factors were increased which are activated during the formation of dopaminergic precursor cells (progenitor cells) (Aldh1a1), the dopamine transporter (DAT) and tyrosin hydroxylase.

caspase-3 = assay: Activity of the apoptosis enzyme caspase-3 in midbrain culture; assay type: cell-based, mice; details: 50 μM
Experimental: FIG. 4d Activity of the apoptosis enzyme caspase-3 during and after incubation with 50 μM 9-methyl-β-carboline for 48 hours 10 DIV-12 DIV.
(§2) In 48 hours about 20% of the cells in culture died. In cultures with a 9-Alkyl-β-carboline only about 10% of the cells died under the same conditions (FIG. 4b). Thus, the findings are in line with the LDH findings. ATP provides the cell with energy. […] The enzyme caspase-3 is an indicator for apoptosis. After 24 hours, the enzyme activity was reduced which hints at a reduction of apoptotic processes, after 48 hours, however, it was increased (FIG. 4d). The last finding hints at a switch of culture cells from reduced necrosis to apoptosis, thus a more precise regulation of cell death.

[5] = tested on: human neuroblastoma cell line (SH-SY5Y-cells); assay: Differentiation and proliferation (bromodeoxyuridine incorporation) of human neuroblastoma cells; assay type: cell-based
Experimental: FIG. 5 Percentage of BrdU-positive cells of human neuroblastoma cells after incubation with 50 μM 9-methyl-β-carboline for 48 hours 10 DIV-12 DIV.
FIG. 6 Evidence of the reduction of cell proliferation by incorporation of bromodeoxyuridine into the cell nucleus chromatin.
The experiments were carried out with the human neuroblastoma cell line (SH-SY5Y-cells) and with a cell culture of primary nerve cells from the mice embryo midbrain. […] Moreover, the mentioned compounds induce in the primary culture from the mice embryo midbrain the generation of new, differentiated and functional dopaminergic neurons.
The question whether 9-Alkyl-β-carboline derivatives lead to the differentiation of neurons is of outstanding importance.
This cell line has many characteristics which dopaminergic neurons have as well. […] So this confirms the observations in the primary midbrain cultures that 9-methyl-β-carboline promotes the differentiation and thus the maturation of neuronal cells (FIG. 1a and FIG. 1b).
Cell proliferation can be measured by the incorporation of bromodeoxyuridine. […] This hints at a reduction of cell proliferation. This finding also supports the other findings that 9-alkyl-β-carboline derivatives promote cell differentiation.

[6] = tested on: dopamine concentration in the striatum; assay: Chronic MPP+ infusion model of Parkinson's disease, dopamine concentration in the striatum; assay type: in vivo, rat; details: rat
From the text: In the diagram the dopamine (DA) levels of the left and right striatum of the single rats are indicated.
(§3) To investigate Parkinson's disease acute in vivo models are used for years although chronic models would be a better model for the disease. Another disadvantage of the acute models is that ca. 40% of the animals die from the application of the neurotoxin. Therefore, we have chosen a chronic model in which comparably very low doses of neurotoxin 1-methyl-4-phenylpyridinium (MPP^+) were infused for 28 days into the left lateral ventricle of the rat brain. The substance was continuously applied through osmotic minipumps. Thereby, casualties were completely avoided. After four weeks, either solvent or equimolar amounts of the sample substance, namely neuroprotective betacarboline, resp. 9-alkyl-betacarboline was infused for two weeks via the same catheter. In a preliminary study for dose-finding the MPP^+ dose which leads to a reduction by 40% of the dopamine concentration in the striatum was determined. The dopamine concentration in the striatum is a characteristic marker for Parkinson's disease in which a degeneration of dopaminergic neurons occurs.
The compounds A to L were tested as described in example 8. The test results of the compounds A to L are indicated in the following table in comparison to 9-methyl-β-carboline.

[7] = tested on: glial cell line-derived neurotrophic factor (GDNF); assay: PCR superarray of RNA from the striata of MPP+ rats: GDNF; assay type: in vivo, rat
From the text: as §3
An explanation for the effect of the betacarboline was found in the tests of the RNA from the striata of these rats through the PCR superarray method. Accordingly, the betacarboline activates the generation of neurotrophins, thus proteins produced naturally in the body, which are responsible for the growth and differentiation of neurons. […]

[8] = tested on: midbrain cells in culture; assay: ATP content of midbrain culture; assay type: cell-based, mice; details: 50 μM, 48 hours
Experimental: FIG. 4c ATP concentration (ATP content) after incubation with 50 μM 9-methyl-β-carboline (9-Me-BV) for 48 hours 10 DIV-12 DIV.
as §2

Cn1c2ccccc2c2ccncc21 [9-methyl-β-carboline]
transcription of genes involved in apoptosis [1]: transcribed less | transcription of genes involved in neuronal differentiation [1]: increased | transcription of genes which activate inflammation processes [1]: transcribed less | cells in culture that died [2]: about 10% | LDH concentration in the medium compared to control [3]: decreased | transcription of Aldh1a1, dopamine transporter (DAT) and tyrosin hydroxylase [4]: increased | transcription of Sonic Hedgehog, Wnt 1, Wnt 5a, engrailed 1, Nurr 1 and Pitx 3 [4]: activated | caspase-3 enzyme activity (caspase-3; after 24 hours): reduced | caspase-3 enzyme activity (caspase-3; after 48 hours): increased | installation of bromodeoxyuridine into the chromatin in the cell nucleus ([5]; 50 μM, 48 hours, BrdU-positive cells): decreases | cellular extensions of neuroblastoma cells ([5]; human neuroblastoma cells): growth of cellular extensions | proliferation of neuroblastoma cells vs control cells ([5]; human neuroblastoma cells): proliferate less than control cells | dopamine concentration in the left striatum ([6]; 4 weeks MPP+ then 2 weeks compound (equimolar, 0.105 mg/kg/day) into left ventricle): normalized | effect in an established model of Parkinson's disease ([6]; chronic MPP+ model): neuroprotective effect | concentration of GDNF ([7]; left striatum): did not increase | increase of GDNF by factor ([7]; right striatum): 12 | concentration of ATP [8]: increased
